Source: patent publication US9579381B2 (priority 2012, dated 2017)
Where two headings read alike, the source gives them in different places.

What was measured:
[1] = tested on: M. turberculosis Dormancy Regulon; conditions: Kumar et al., cited from earlier work
[2] = molecular target: KatG (Mycobacterium tuberculosis, UniProt P9WIE5); experiment: CO detection: KatG/tBHP activation, CO trapped by deoxyMyoglobin (MbCO, absorbance 540 nm); assay type: biochemical
[3] = tested on: dos regulon genes (dosR, dosS, fdxA); assay type: cell-based; conditions: Mtb H37Rv treated for 4 hours; Real time PCR
[4] = tested on: dos regulon genes (dosR, dosS, fdxA); assay type: cell-based, M. bovis BCG

Chain of KatG (P9WIE5 whole entry): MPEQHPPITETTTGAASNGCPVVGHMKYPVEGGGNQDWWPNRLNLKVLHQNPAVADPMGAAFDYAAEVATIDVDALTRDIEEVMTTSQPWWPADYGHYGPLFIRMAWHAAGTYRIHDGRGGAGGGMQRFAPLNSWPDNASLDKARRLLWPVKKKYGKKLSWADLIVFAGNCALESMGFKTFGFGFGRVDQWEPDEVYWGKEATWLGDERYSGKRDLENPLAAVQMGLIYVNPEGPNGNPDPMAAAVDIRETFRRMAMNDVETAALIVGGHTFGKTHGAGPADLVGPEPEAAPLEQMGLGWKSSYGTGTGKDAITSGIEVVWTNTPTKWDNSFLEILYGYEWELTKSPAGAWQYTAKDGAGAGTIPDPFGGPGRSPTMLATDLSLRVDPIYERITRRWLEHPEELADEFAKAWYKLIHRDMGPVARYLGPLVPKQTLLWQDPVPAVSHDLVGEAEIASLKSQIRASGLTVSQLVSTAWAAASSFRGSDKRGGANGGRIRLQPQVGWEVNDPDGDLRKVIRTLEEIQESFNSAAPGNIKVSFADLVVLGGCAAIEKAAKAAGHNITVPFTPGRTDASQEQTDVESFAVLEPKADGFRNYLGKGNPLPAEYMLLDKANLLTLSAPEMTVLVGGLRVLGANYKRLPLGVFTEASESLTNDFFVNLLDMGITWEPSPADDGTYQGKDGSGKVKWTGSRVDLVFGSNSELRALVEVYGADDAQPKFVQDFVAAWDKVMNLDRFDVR

## [C-]#[O+] [CO]
[1]; gene Rv0079
  +CO/−CO: 3.3
[1]; gene Rv0080
  +CO/−CO: 2.9
[1]; gene Rv0081
  +CO/−CO: 2.3
[1]; gene Rv0669
  +CO/−CO: 6
[1]; gene Rv0670 nroZ
  +CO/−CO: 3.2
[1]; gene Rv0671
  +CO/−CO: 2.3
[1]; gene Rv0672
  +CO/−CO: 2.8
[1]; gene Rv0673 pncB2
  +CO/−CO: 1.5
[1]; gene Rv0674
  +CO/−CO: 1.7
[1]; gene Rv1733
  +CO/−CO: 2.3
[1]; gene Rv1734
  +CO/−CO: 2
[1]; gene Rv1735
  +CO/−CO: 1.6
[1]; gene Rv1736 narX
  +CO/−CO: 2.4
[1]; gene Rv1737 narK2
  +CO/−CO: 2.1
[1]; gene Rv1738
  +CO/−CO: 5.8
[1]; gene Rv1812
  +CO/−CO: 1.9
[1]; gene Rv1813
  +CO/−CO: 5.1
[1]; gene Rv1996
  +CO/−CO: 2.4
[1]; gene Rv1997 ctpF
  +CO/−CO: 6.8
[1]; gene Rv2003
  +CO/−CO: 3.3
[1]; gene Rv2004
  +CO/−CO: 4.8
[1]; gene Rv2005
  +CO/−CO: 6.7
[1]; gene Rv2006 otsB1
  +CO/−CO: 2.6
[1]; gene Rv2007 foxA
  +CO/−CO: 7.1
[1]; gene Rv2028
  +CO/−CO: 1.9
[1]; gene Rv2029 pkfB
  +CO/−CO: 6.6
[1]; gene Rv2030
  +CO/−CO: 9.2
[1]; gene Rv2031 hsoX (acr)
  +CO/−CO: 5.2
[1]; gene Rv2032 acg
  +CO/−CO: 8.4
[1]; gene Rv2823 TB31.7
  +CO/−CO: 6.8
[1]; gene Rv2824
  +CO/−CO: 7.1
[1]; gene Rv2825
  +CO/−CO: 2.2
[1]; gene Rv2826 hrp1
  +CO/−CO: 10
[1]; gene Rv2827
  +CO/−CO: 4.2
[1]; gene Rv2828
  +CO/−CO: 6.8
[1]; gene Rv2829
  +CO/−CO: 2.6
[1]; gene Rv2830
  +CO/−CO: 5.2
[1]; gene Rv2831
  +CO/−CO: 2.7
[1]; gene Rv3126
  +CO/−CO: 1.8
[1]; gene Rv3127
  +CO/−CO: 2.7
[1]; gene Rv3130 tgs1
  +CO/−CO: 11
[1]; gene Rv3131
  +CO/−CO: 3.3
[1]; gene Rv3132 dos8 (devS)
  +CO/−CO: 3.1
[1]; gene Rv3133 dosR (devR)
  +CO/−CO: 3
[1]; gene Rv3134
  +CO/−CO: 7.1

## NC(=O)c1ccc[n+]([C@@H]2O[C@H](COP(=O)([O-])OP(=O)(O)OC[C@H]3O[C@@H](n4cnc5c(N)ncnc54)[C@H](O)[C@@H]3O)[C@@H](O)[C@H]2O)c1 [NAD+, NAD]
[2]; various dosages, Kat G 22.44 μg per reaction, 1 mM tBHP
  formation of MbCO (CO-Mb): inhibited

## NNC(=O)c1ccncc1 [INH, Isoniazid]
[2]
  CO produced from activated compound: dependent upon dose, time, and KatG
[3]
  expression of dos regulon genes (dosR, dosS, fdxA): significantly increased
[4]
  expression of dos regulon genes (dosR, dosS, fdxA): significantly increased
